Experiment: Human HepG2 cell viability assay in 384 well format
Type: toxicity, cell-based
Parameters: dose 125 nL, time 70.5 hour; cytotoxicity at 70.5 h: concentration not given beside the values
Conditions: HepG2 cells, read-out: Inhibition

SMILES	cytotoxicity at 70.5 h [%]
CCc1nc(C2CCCN(c3ncc(Br)cn3)C2)no1 (stereo unspecified)	-14.4
CCn1nc(C)c(S(=O)(=O)Nc2ccccc2C(=O)OC)c1C	11.2
NS(=O)(=O)c1cc(C(=O)N2CCCCC2)cs1	-4.34
CN1CC(Nc2nc3c(cnn3C(C)(C)C)c(=O)[nH]2)CCC1=O (stereo unspecified)	-2.42
CN(C)C(=O)c1ccc(OC2CCOCC2)cc1	-15.1
C[S+]([O-])c1ccc(NC(=O)Cc2cccnc2)cc1F (stereo unspecified)	11.1
CCOC1CCCN(C(=O)c2[nH]nc(C3CC3)c2Br)C1 (stereo unspecified)	-6.37
CCOC1CCCN(C(=O)c2[nH]nc(C(C)C)c2Br)C1 (stereo unspecified)	11.3
COc1ccccc1C(C)(C)NCc1ccc(C)o1	-5.83
COc1ccnc(NCC2CN(C3CC3)CCO2)n1 (stereo unspecified)	10.1
CN(Cc1cscn1)C1CCN(C(=O)OC(C)(C)C)CC1	29.5
Cc1ncsc1C(=O)NCCNc1cnccn1	-3.47
CC(C)(C)c1ncc(C(=O)NCCn2ccnc2)s1	24.5
Cc1nc(C(C)(C)C)sc1C(=O)NCCn1cccn1	-0.966
CC(C)CCNC(=O)c1ccc(Cl)c(NS(C)(=O)=O)c1	-4.83
CCN1CCN(c2ccc(C(=O)NC(C)C(=O)N(C)C)cc2)CC1 (stereo unspecified)	-4.6
CC(C)CS(=O)(=O)CC(=O)NC(C)(C)c1cccc(F)c1	6.38
Cc1cccc(C(C)(C)NC(=O)CS(=O)(=O)CC(C)C)c1	-4.98
Cc1nn(C)c(C)c1NC(=O)CNc1ccc(F)c(C(F)(F)F)c1	-2.51
CS(=O)(=O)CCN1CCC(=Cc2ccccc2)CC1	-3.57
CC(NC(=O)c1cccs1)C(=O)NS(=O)(=O)c1cccc(C#N)c1 (stereo unspecified)	2.5
CC(NC(=O)c1cccs1)C(=O)NS(=O)(=O)Cc1ccc(C#N)cc1 (stereo unspecified)	4.04
Cc1ccccc1C1(CN)CCCCC1	10.6
Cc1ccccc1C1(CN)CCOCC1	-6.58

SMILES	cytotoxicity at 70.5 h [%]
Cc1nn(C)c(C)c1CCC(=O)N1CCc2sccc2C1	23.2
CN(C)C(=O)c1cccc(C[S+]([O-])CC(=O)NC2CCCC2)c1 (stereo unspecified)	5.53
Cn1ccc(C(=O)N(CC(F)(F)F)c2cccc(Cl)c2)cc1=O	11.6
O=C(C1COc2ccccc2C1)N(CCO)Cc1ccccc1 (stereo unspecified)	-1.94
Cc1nn(C)c(C)c1CCC(=O)NCc1cccnc1OC1CCCC1	-3.92
Cc1nc(C)c(CC(=O)NCc2cccnc2OC2CCCC2)c(=O)[nH]1	-4.62
CCC(C)(C)NC(=O)CN(Cc1cccc(O)c1)C1CCC(O)CC1 (stereo unspecified)	-4.94
CC(C(=O)Nc1ccc2ccccc2c1)N1CCC(n2ccnc2)CC1 (stereo unspecified)	-4.02
COc1ccc(Cl)cc1-c1cc(NC(=O)C2CNC(=O)N2)[nH]n1 (stereo unspecified)	1.69
Cc1cnn(CC2CCCCN2C(=O)c2sccc2C#N)c1 (stereo unspecified)	-4.1
CCCc1noc(CNc2cc(C[S+](C)[O-])ccc2Cl)n1 (stereo unspecified)	-3.29
Cc1cccc(C2(O)CCN(C(=O)c3ccc(N(C)C)cc3)CC2)c1C	9.92
CN(C)C(=O)C1CN(Cc2ccc(C#N)cc2)c2ccccc2O1 (stereo unspecified)	4.19
CCOc1ccc(CN2C(=O)CC(C)(C(C)C)C2=O)nc1 (stereo unspecified)	0.245
CC1CN(C)c2ccccc2CN1C(=O)NCc1ccon1 (stereo unspecified)	-0.0778
CS(=O)(=O)NCCCNCc1cc(F)ccc1Br	-2.01
Cc1noc(C)c1CNC(=O)N1Cc2ccccc2N(C)CC1C (stereo unspecified)	7.21
Cc1cc(CN2CCCC(NS(C)(=O)=O)C2)ccc1-n1cncn1 (stereo unspecified)	11.7
Cc1cc(N2CCCC(OC(=O)CCN3CCCC3=O)C2)nc(C)n1 (stereo unspecified)	-5.43
Clc1ccc(CNc2ccc(Cl)cn2)cc1	-9.29
Cc1ccsc1CNC(=O)CSc1nnc[nH]1	-11.1
Cc1cccnc1NC(=O)C1CCN(C(=O)C(C)C)CC1	-19.2
CN1CCN(c2ccc(NC(=O)c3cccs3)c(C(F)(F)F)c2)CC1	-9.41
Cc1noc(C)c1CCC(=O)N(C)C(C)c1cccs1 (stereo unspecified)	-11.3

SMILES	cytotoxicity at 70.5 h [%]
COc1ccc(C(C)Nc2ncc(C(N)=O)cc2Cl)c(OC)c1 (stereo unspecified)	-4.47
CCn1ccc2cc(NC(=O)CC3CCCO3)ccc21 (stereo unspecified)	-6.31
Cc1nc(C2(NCc3c(C)nn(C)c3N3CCOCC3)CCC2)no1	10.7
CCOCCN1CCN(CC(O)c2cc(Cl)ccc2Cl)CC1 (stereo unspecified)	-5.82
Cc1nn(C)cc1C(C)Nc1ncc(C(N)=O)cc1Cl (stereo unspecified)	-5.7
Cc1cc(CS(=O)(=O)NC2CCCCC2)on1	-15.3
COc1ccc(Br)cc1CCC(=O)N1CCCC(O)C1 (stereo unspecified)	-5.19
COc1ccc(Br)cc1CCC(=O)N1CCSCC1	8.26
COc1ccc(Br)cc1CCC(=O)N1CCCC1	-0.161
COc1cc(C)c(NC(=O)CCn2cccc2)cc1OC	-6.6
Cc1cccnc1C(NC(=O)CNC(=O)c1ccoc1C)C(C)C (stereo unspecified)	3.13
CN(c1ccc(CNc2ccc(Cl)cn2)cc1)S(C)(=O)=O	-4.71
Cc1ccc(C(=O)N2CC(C(N)=O)O[C@H](C)C2)c(F)c1 (stereo partly specified)	-0.939
CCCS(=O)(=O)N1CCN(C(=O)CO)CC1	-6.95
COc1cc(Cl)c(NC(=O)NCCn2cccc2)cc1OC	-4.58
O=C(CO)N1CCN(S(=O)(=O)CCCF)CC1	3.01
CCc1nn(C)c(CC)c1CNC(=O)Nc1cccc2c1CCN2C	-0.865
CN1CCN(c2ccc(NC(=O)c3ccoc3)c(C(F)(F)F)c2)CC1	-7.05
COCCCC(=O)N(C)c1ccc(F)c(Cl)c1	-8.74
Cc1ccc(C(=O)N2CC(C(N)=O)O[C@H](C)C2)c(C)c1 (stereo partly specified)	1.19
CC(C)C(=O)NS(=O)(=O)c1ccc2c(c1)N(C)CCC2	-8.04
COc1ccc(C2CCCN2C(=O)c2ccnc(NC3CC3)c2)cc1 (stereo unspecified)	6.42
CCN(C(=O)CCc1ccccc1)C1CC(=O)NC1=O (stereo unspecified)	0.716
CC(NCc1ccc(OCc2nccn2C)cc1)c1cccnc1 (stereo unspecified)	-9.04

SMILES	cytotoxicity at 70.5 h [%]
COCCNC(=O)Nc1ccc(-c2nc(C(C)C)no2)cc1	-6.61
CC(C)OC(=O)CNC(=O)Nc1ccc(-c2nc(C(C)C)no2)cc1	2.82
Cc1nnc2n1CCN(Cc1nc3c(F)cccc3[nH]1)C2	-9.16
CS(=O)(=O)N1CCCN(c2nccn3cnnc23)CC1	-6.97
CCc1cnc(NC(=O)NC2CCN(C)CC2)s1	10.3
c1csc(N2CCCN(c3nccn4cnnc34)CC2)n1	3.4
O=C(NCc1ccncc1)N1CC(Cc2ccccc2F)C1	-5.27
COc1cc(-n2cccc2)c(Cl)cc1C(N)=O	-3.56
CC(C)CS(=O)(=O)NC(=O)c1ccc2c(c1)ncn2C	-4.45
Cn1cnc2cc(C(=O)NS(=O)(=O)CC3CCCC3)ccc21	0.122
CCn1cc(CNC2CCN(c3c(F)cccc3F)C2)cn1 (stereo unspecified)	-0.658
CC(CS(C)(=O)=O)N(C(=O)CCc1cccc(F)c1)C1CC1 (stereo unspecified)	12.6
CN(C)C(=O)N1CCN(C(=O)c2ccn3ccnc3c2)CC1	-3.58
Cc1ccc(N(C)C2CCCN(C(=O)Nc3ccc(F)cc3F)C2)cc1 (stereo unspecified)	-2.7
COCCN1CCN(CCCc2nnnn2-c2ccccc2)CC1	-14.2
Cc1ccc(C(=O)Nc2ccc(N3CCCC3)cn2)cc1F	19.7
c1cnc(N2CCN(Cc3nnnn3C3CC3)CC2)nc1	-16.2
CCCNC(=O)CN1CCOC(c2ccc(Br)cc2)C1 (stereo unspecified)	-6.67
CNC(=O)NC(=O)CCN1CCOC(c2ccc(Br)cc2)C1 (stereo unspecified)	-7.41
CN(C)S(=O)(=O)c1ccc(CN2CCC(C(N)=O)CC2)o1	-2.97
CC(=O)N1CCN(C(=O)NCCCc2cn[nH]c2C)CC1	-14.4
Cc1n[nH]cc1CNCC(c1cccc(F)c1)N(C)C (stereo unspecified)	-1.43
Cn1nccc1C(=O)N1C[C@@H]2CN(S(C)(=O)=O)CCO[C@@H]2C1	-3.72
O=C1CCCN1Cc1nnc2n1CCCN(C(=O)c1ccco1)C2	22.7

SMILES	cytotoxicity at 70.5 h [%]
CO[C@H]1CC[C@H]2[C@H]1OCCN2C(=O)c1nn(C)c2ccccc12	-3.21
CCN1CCNC(=O)C12CCN(C(=O)c1ccccn1)CC2	18.3
Cc1ccc2c(n1)N(CC1CC1)CCN(Cc1cnn(C)c1)C2	30.4
CCO[C@H]1CC[C@H]2[C@H]1OCCN2C(=O)CC1=CCCCC1	24
Cc1ccc2c(n1)N(C)CCN(Cc1cnn(C)c1)C2	-2.39
COCCn1c2c(ccc1=O)CCN(C(=O)Cc1cccs1)CC2	-5.4
COc1cc(N2CCC3(CC2)CN(S(C)(=O)=O)c2ccccc23)ncn1	-2.83
COCCn1c2c(ccc1=O)CCN(C(=O)Cc1ccsc1)CC2	2.04
O=C(C1CC(F)(F)C1)N1C[C@@H]2CN(Cc3ccoc3)CCO[C@@H]2C1	-3.45
COc1c(CNC2(c3noc(C)n3)CCC2)c(C)nn1C	-7.32
CN(C)C(=O)CO[C@H]1CN(Cc2ccoc2)[C@@H]2COC[C@H]12	-5.51
CN(C)C(=O)CO[C@H]1CN(Cc2ccc3c(c2)OCO3)[C@@H]2COC[C@H]12	-4.69
CN1CCO[C@@H]2CN(S(=O)(=O)c3ccccc3)C[C@@H]2C1	20.2
O=C(C1CC(F)(F)C1)N1C[C@@H]2CN(CC3CCCC3)CCO[C@@H]2C1	22.1
COc1ccc(C[C@H]2CN(Cc3ccoc3)CC[C@H]2OC)cc1	-0.279
CCN1CCN(C)C(=O)C12CCN(C(=O)Cc1ccccn1)CC2	0.951
CO[C@@H]1CCN(Cc2ccoc2)[C@H]1Cc1ccccc1	-5.28
Cc1ccoc1C(=O)N1CC[C@H]2[C@H](C[C@@H](CN3CCCC3)N2C)C1	4.09
CN1CCC(N2CCC(C(=O)N(C)C)CC2)CC1	-0.525
CN(C)C(=O)C1CCN(C2CCN(CC3CC3)CC2)CC1	-5.51

— ChEMBL document CHEMBL3507680, “University of Dundee, Gates Library screen for HepG2 cell viability”
